Data reported in patent US8765730B2 (Hoffmann-La Roche Inc, priority 2010, dated 2014).

target: T1, human GPBAR1 receptor (Homo sapiens, UniProt Q8TDU6); assay: functional cAMP assay in CHO-dhfr(minus) cells expressing human GPBAR1 receptors; format: cell-based; details: human EC50, functional cAMP assay, 30 min at 30° C.
T1 construct: expressed in transfected cells
T1 sequence (Q8TDU6 1-330): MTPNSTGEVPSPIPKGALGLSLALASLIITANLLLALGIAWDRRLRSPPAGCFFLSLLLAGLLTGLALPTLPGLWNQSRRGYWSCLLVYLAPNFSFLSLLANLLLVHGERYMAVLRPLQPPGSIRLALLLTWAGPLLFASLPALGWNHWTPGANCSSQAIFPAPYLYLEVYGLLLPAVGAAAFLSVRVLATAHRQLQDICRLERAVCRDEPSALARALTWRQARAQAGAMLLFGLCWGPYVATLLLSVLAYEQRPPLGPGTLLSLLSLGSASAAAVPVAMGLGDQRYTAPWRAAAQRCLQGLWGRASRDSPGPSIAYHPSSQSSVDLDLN
How it was run: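 Agonist cAMP read-out: stable GPBAR1 CHO-dhfr− clone, 30 min compound exposure at 30° C following 30 min IBMX (1 mM) preincubation in Krebs Ringer bicarbonate. Time-resolved energy-transfer detection gives EC50; parental CHO cells serve as counter-screen.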

EC50	Compound
49 nM	Cc1cc(/C(CC(c2ccc(C(=O)NC[C@@H](C)O)cc2)c2ccc(F)cc2F)=N/O)ccn1 (stereo partly drawn) [Example 434, 4-[1-(2,4-Difluoro-phenyl)-3-[(E)-hydroxyimino]-3-(2-methyl-pyridin-4-yl)-propyl]-N—((R)-2-hydroxy-propyl)-benzamide]
14 nM	Cc1cc(/C(CC(c2ccc(-c3ccc(C(=O)O)c(F)c3)cc2)c2ccccc2C)=N/O)ccn1 (centres unmarked) [Example 131, 3-Fluoro-4′-[3-[(E)-hydroxyimino]-3-(2-methyl-pyridin-4-yl)-1-o-tolyl-propyl]-biphenyl-4-carboxylic acid]
18 nM	Cc1cc(/C(C[C@H](c2ccc(-c3ccc(C(=O)O)c(F)c3)cc2)c2ccc(Cl)cc2F)=N/O)ccn1 (single isomer, unassigned) [Example 448, 4′-[(−)-1-(4-Chloro-2-fluoro-phenyl)-3-[(E)-hydroxyimino]-3-(2-methyl-pyridin-4-yl)-propyl]-3-fluoro-biphenyl-4-carboxylic acid]
90 nM	Cc1cc(/C(C[C@H](c2ccc(N[C@H]3C[C@H](C(=O)O)C3)cc2)c2ccccc2C)=N/O)ccn1 [Example 356, 3-{4-[(R)-3-[(E)-Hydroxyimino]-3-(2-methyl-pyridin-4-yl)-1-o-tolyl-propyl]-phenylamino}-cyclobutanecarboxylic acid]
548 nM	O/N=C(\CC(c1ccccc1)c1ccc(Br)cc1)c1cc(Cl)nc(Cl)c1 (centres unmarked) [Example 47, (E)-3-(4-Bromo-phenyl)-1-(2,6-dichloro-pyridin-4-yl)-3-phenyl-propan-1-one oxime]
99 nM	Cc1ccccc1[C@H](C/C(=N\O)c1ccc(=O)n(C)c1)c1ccc(C2CCN(S(C)(=O)=O)CC2)cc1 [Example 509, (R,E)-5-(1-(Hydroxyimino)-3-(4-(1-(methylsulfonyl)piperidin-4-yl)phenyl)-3-o-tolylpropyl)-1-methylpyridin-2(1H)-one]
13 nM	Cc1cc(/C(C[C@H](c2ccc([C@H]3CC[C@@H](C(=O)O)CC3)cc2)c2ccc(Cl)cc2C)=N/O)ccn1 [Example 505, cis-4-(4-((R,E)-1-(4-chloro-2-methylphenyl)-3-(hydroxyimino)-3-(2-methylpyridin-4-yl)propyl)phenyl)cyclohexanecarboxylic acid]
1350 nM	Cn1cc(/C(CC(c2ccc(=O)n(C)c2)c2ccccc2Cl)=N/O)ccc1=O (centres unmarked) [Example 250, (E)-5,5′-(1-(2-Chlorophenyl)-3-(hydroxyimino)propane-1,3-diyl)bis(1-methylpyridin-2(1H)-one)]
661 nM	Cc1cc(C)cc(C(CC(=NO)c2ccncc2)c2ccc(N(C)C)cc2)c1 (racemic) [Example 18, 3-(4-Dimethylamino-phenyl)-3-(3,5-dimethyl-phenyl)-1-pyridin-4-yl-propan-1-one oxime]
12 nM	Cc1cc(/C(CC(c2ccc(-c3ccc(C(=O)O)c(F)c3)cc2)c2ccc(Cl)cc2F)=N/O)ccn1 (centres unmarked) [Example 447, 4′-[1-(4-Chloro-2-fluoro-phenyl)-3-[(E)-hydroxyimino]-3-(2-methyl-pyridin-4-yl)-propyl]-3-fluoro-biphenyl-4-carboxylic acid]
75 nM	Cc1cc(/C(CC(c2ccc(C(=O)N3CCC(F)(F)CC3)cc2)c2ccc(F)cc2F)=N/O)ccn1 (centres unmarked) [Example 437, 3-(2,4-Difluoro-phenyl)-3-[4-(4,4-difluoro-piperidine-1-carbonyl)-phenyl]-1-(2-methyl-pyridin-4-yl)-propan-1-one oxime]
370 nM	Cn1cc(/C(CC(c2ccc(-c3ccc(C(=O)O)cc3)cc2)c2ccc(Cl)cc2F)=N/O)ccc1=O (single isomer, unassigned; (-)) [Example 242, (−)-4′-[1-(4-Chloro-2-fluoro-phenyl)-3-[(E)-hydroxyimino]-3-(1-methyl-6-oxo-1,6-dihydro-pyridin-3-yl)-propyl]-biphenyl-4-carboxylic acid]
14 nM	Cc1cc(/C(C[C@H](c2ccc(C3CCN(S(C)(=O)=O)CC3)cc2)c2ccccc2C)=N/O)ccn1 [Example 379, (R,E)-1-(2-methylpyridin-4-yl)-3-(4-(1-(methylsulfonyl)piperidin-4-yl)phenyl)-3-o-tolylpropan-1-one oxime]
4080 nM	Cc1ccccc1C(C/C(=N\O)c1ccc(=O)n(C)c1)c1ccc(OCC(=O)O)cc1F (centres unmarked) [Example 221, {3-Fluoro-4-[3-[(E)-hydroxyimino]-3-(1-methyl-6-oxo-1,6-dihydro-pyridin-3-yl)-1-o-tolyl-propyl]-phenoxy}-acetic acid]
12 nM	Cc1cc(C(CC(c2ccc(CCCO)cc2)c2ccccc2C)=NO)ccn1 (racemic) [Example 88, 3-[4-(3-Hydroxy-propyl)-phenyl]-1-(2-methyl-pyridin-4-yl)-3-o-tolyl-propan-1-one oxime]
1630 nM	Cc1ccccc1C(C/C(=N\O)c1ccc(=O)n(C)c1)c1ccc(C(=O)N[C@@H](CO)C(C)C)cc1 (stereo partly drawn) [Example 305, N—((R)-1-hydroxy-3-methylbutan-2-yl)-4-((E)-3-(hydroxyimino)-3-(1-methyl-6-oxo-1,6-dihydropyridin-3-yl)-1-o-tolylpropyl)benzamide]
253 nM	Cn1cc(/C(CC(c2ccc(C(=O)NCCO)cc2)c2ccc(Cl)cc2F)=N/O)ccc1=O (centres unmarked) [Example 311, 4-[1-(4-Chloro-2-fluoro-phenyl)-3-[(E)-hydroxyimino]-3-(1-methyl-6-oxo-1,6-dihydro-pyridin-3-yl)-propyl]-N-(2-hydroxy-ethyl)-benzamide]
319 nM	CCS(=O)(=O)c1ccc(C(C/C(=N\O)c2ccc(=O)n(C)c2)c2ccc(Cl)cc2F)cc1 (centres unmarked) [Example 316, (E)-5-(3-(4-Chloro-2-fluorophenyl)-3-(4-(ethylsulfonyl)phenyl)-1-(hydroxyimino)propyl)-1-methylpyridin-2(1H)-one]
16 nM	Cc1cc(C(CC(c2ccc(-c3ccc(C(=O)O)c(F)c3)cc2)c2ccccc2C)=NO)ccn1 (racemic) [Example 112, 3-Fluoro-4′-[3-[hydroxyimino]-3-(2-methyl-pyridin-4-yl)-1-o-tolyl-propyl]-biphenyl-4-carboxylic acid]
2200 nM	Cc1ccccc1C(C/C(=N/O)c1ccncc1)c1ccc(-c2cncnc2)cc1 (single isomer, unassigned; (-)) [Example 37, (−)-(Z)-1-pyridin-4-yl-3-(4-pyrimidin-5-yl-phenyl)-3-o-tolyl-propan-1-one oxime]
2520 nM	CC(=O)Nc1cccc(C(C/C(=N\O)c2ccc(=O)n(C)c2)c2ccc(Cl)cc2F)c1 (centres unmarked) [Example 319, (E)-N-(3-(1-(4-Chloro-2-fluorophenyl)-3-(hydroxyimino)-3-(1-methyl-6-oxo-1,6-dihydropyridin-3-yl)propyl)phenyl)acetamide]
20 nM	Cc1cc(/C(C[C@H](c2ccc(C3CCN(S(N)(=O)=O)CC3)cc2)c2ccc(Cl)cc2C)=N/O)ccn1 [Example 480, (R,E)-4-(4-(1-(4-Chloro-2-methylphenyl)-3-(hydroxyimino)-3-(2-methylpyridin-4-yl)propyl)phenyl)piperidine-1-sulfonamide]
38 nM	Cc1cc(/C(CC(c2ccc(N3CCN(S(C)(=O)=O)CC3)cc2)c2ccccc2C(F)(F)F)=N/O)ccn1 (centres unmarked) [Example 137, (E)-3-[4-(4-Methanesulfonyl-piperazin-1-yl)-phenyl]-1-(2-methyl-pyridin-4-yl)-3-(2-trifluoromethyl-phenyl)-propan-1-one oxime]
2410 nM	CCOC(=O)C(C(=O)OCC)c1ccc([C@H](C/C(=N\O)c2ccnc(C)c2)c2ccccc2C)cc1 [Example 286, 2-{4-[(S)-3-[(E)-Hydroxyimino]-3-(2-methyl-pyridin-4-yl)-1-o-tolyl-propyl]-phenyl}-malonic acid diethyl ester]
21 nM	Cc1cc(/C(C[C@H](c2ccc(C(=O)N(C)C)cc2)c2ccccc2C)=N/O)ccn1 [Example 277, 4-[(R)-3-[(E)-Hydroxyimino]-3-(2-methyl-pyridin-4-yl)-1-o-tolyl-propyl]-N,N-dimethyl-benzamide]
12 nM	Cc1cc(F)ccc1[C@@H](C/C(=N\O)c1ccc(=O)n(C)c1)c1ccc(-c2ccc(S(N)(=O)=O)cc2)cc1 (single isomer, unassigned) [Example 407, (+)-4′-[1-(4-Fluoro-2-methyl-phenyl)-3-[(E)-hydroxyimino]-3-(1-methyl-6-oxo-1,6-dihydro-pyridin-3-yl)-propyl]-biphenyl-4-sulfonic acid amide]
2 nM	Cc1cc(/C(C[C@H](c2ccc(N3CCC(CO)CC3)cc2)c2ccccc2C)=N/O)ccn1 [Example 269, (E,R)-3-[4-(4-Hydroxymethyl-piperidin-1-yl)-phenyl]-1-(2-methyl-pyridin-4-yl)-3-o-tolyl-propan-1-one oxime]
1310 nM	Cc1ccccc1C(C/C(=N\O)c1ccc(=O)n(C)c1)c1ccc(C(=O)NCCCC(=O)O)cc1 (centres unmarked) [Example 213, 4-{4-[3-[(E)-Hydroxyimino]-3-(1-methyl-6-oxo-1,6-dihydro-pyridin-3-yl)-1-o-tolyl-propyl]-benzoylamino}-butyric acid]
347 nM	Cc1cc(C(=O)O)ccc1-c1ccc(C(C/C(=N\O)c2ccc(=O)n(C)c2)c2ccc(Cl)cc2F)cc1 (single isomer, unassigned) [Example 466, 4′-[(+)-1-(4-Chloro-2-fluoro-phenyl)-3-[(E)-hydroxyimino]-3-(1-methyl-6-oxo-1,6-dihydro-pyridin-3-yl)-propyl]-2-methyl-biphenyl-4-carboxylic acid]
